Experimental data from ChEMBL document CHEMBL1201862, “PubChem BioAssay data set” (2004).
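Growth conditions: 96-well plates. Treatment: test compound, 48 hours, 5 concentrations. Analysis: linear interpolation between bracketing concentrations; unreached endpoints set to highest concentration. The concentration for 50% growth inhibition is given as GI50.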 Active and inactive are the calls of the source. Rule as the data show it: active = GI50 up to about 1.1 µM and inactive = higher.

How the values were obtained:
Test in all cases: NCI-60 cell line screen, 48 h
SK-OV-3 = test system: SK-OV-3
SF-268 = test system: SF-268
UACC-257 = test system: UACC-257
HL-60 = test system: HL-60
SN12C = test system: SN12C
KM12 = test system: KM12
HT-29 = test system: HT-29
SF-295 = test system: SF-295
SR = test system: SR
NCI-H460 = test system: NCI-H460
LOX IMVI = test system: LOX IMVI
HCT-116 = test system: HCT-116
OVCAR-4 = test system: OVCAR-4
RXF 393 = test system: RXF 393
HCC 2998 = test system: HCC 2998
IGROV-1 = test system: IGROV-1
SNB-19 = test system: SNB-19
UACC-62 = test system: UACC-62
HOP-62 = test system: HOP-62

Structure (SMILES)	GI50 (SK-OV-3)	GI50 (SF-268)	GI50 (UACC-257)	GI50 (HL-60)	GI50 (SN12C)	GI50 (KM12)	GI50 (HT-29)	GI50 (SF-295)	GI50 (SR)	GI50 (NCI-H460)	GI50 (LOX IMVI)	GI50 (HCT-116)	GI50 (OVCAR-4)	GI50 (RXF 393)	GI50 (HCC 2998)	GI50 (IGROV-1)	GI50 (SNB-19)	GI50 (UACC-62)	GI50 (HOP-62)
COc1ccc2oc(C(=O)O)c3c2c1CCC3CCC(=O)O (centres undefined)	> 100 µM (inactive)	> 100 µM (inactive)	> 100 µM (inactive)	> 100 µM (inactive)	> 100 µM (inactive)	> 100 µM (inactive)	> 100 µM (inactive)	> 100 µM (inactive)	> 100 µM (inactive)	> 100 µM (inactive)	> 100 µM (inactive)	> 100 µM (inactive)	> 100 µM (inactive)	> 100 µM (inactive)	> 100 µM (inactive)	> 100 µM (inactive)	> 100 µM (inactive)	> 100 µM (inactive)	–
CCCCNC(=O)C1C2CCC(O2)C1C(=O)O (centres undefined)	23.1 µM (inactive)	17.7 µM (inactive)	22.8 µM (inactive)	–	14 µM (inactive)	56.2 µM (inactive)	23.1 µM (inactive)	23.1 µM (inactive)	18.8 µM (inactive)	41 µM (inactive)	16.5 µM (inactive)	12 µM (inactive)	29.6 µM (inactive)	2.07 µM (inactive)	26.2 µM (inactive)	> 100 µM (inactive)	23.7 µM (inactive)	17.5 µM (inactive)	34.7 µM (inactive)
COc1ccc(-c2c(N)n(-c3cccc(C(=O)O)c3)c(=O)c3cc([N+](=O)[O-])ccc23)cc1	> 100 µM (inactive)	> 100 µM (inactive)	> 100 µM (inactive)	> 100 µM (inactive)	–	> 100 µM (inactive)	> 100 µM (inactive)	> 100 µM (inactive)	> 100 µM (inactive)	> 100 µM (inactive)	> 100 µM (inactive)	> 100 µM (inactive)	> 100 µM (inactive)	> 100 µM (inactive)	> 100 µM (inactive)	> 100 µM (inactive)	> 100 µM (inactive)	> 100 µM (inactive)	> 100 µM (inactive)
COc1ccc(NC(=O)CC(=O)N/N=C/c2ccc(N(CCC#N)S(=O)(=O)c3ccccc3)cc2)cc1	> 100 µM (inactive)	> 100 µM (inactive)	> 100 µM (inactive)	> 100 µM (inactive)	–	> 100 µM (inactive)	> 100 µM (inactive)	> 100 µM (inactive)	> 100 µM (inactive)	> 100 µM (inactive)	> 100 µM (inactive)	> 100 µM (inactive)	> 100 µM (inactive)	–	> 100 µM (inactive)	> 100 µM (inactive)	> 100 µM (inactive)	> 100 µM (inactive)	> 100 µM (inactive)
CCCCCCCCCCC/C(=N/O)c1ccc(O)c2ncccc12	–	2.9 µM (inactive)	3.25 µM (inactive)	0.19 µM (active)	–	6.41 µM (inactive)	4.11 µM (inactive)	2.71 µM (inactive)	–	3.65 µM (inactive)	2.37 µM (inactive)	6.64 µM (inactive)	2.61 µM (inactive)	7.67 µM (inactive)	5.28 µM (inactive)	–	5.74 µM (inactive)	–	4.26 µM (inactive)
OC1C2C=CCC1CCC2 (centres undefined)	> 100 µM (inactive)	> 100 µM (inactive)	> 100 µM (inactive)	> 100 µM (inactive)	> 100 µM (inactive)	> 100 µM (inactive)	> 100 µM (inactive)	> 100 µM (inactive)	> 100 µM (inactive)	> 100 µM (inactive)	> 100 µM (inactive)	> 100 µM (inactive)	> 100 µM (inactive)	> 100 µM (inactive)	–	> 100 µM (inactive)	> 100 µM (inactive)	> 100 µM (inactive)	> 100 µM (inactive)
O=C(O)CNn1c(SCC(=O)O)nnc(/C=C/c2c(O)ccc3ccccc23)c1=O	5.53 µM (inactive)	24.4 µM (inactive)	35.9 µM (inactive)	9.98 µM (inactive)	11.2 µM (inactive)	31.6 µM (inactive)	41.9 µM (inactive)	3.89 µM (inactive)	32.3 µM (inactive)	4.91 µM (inactive)	7.5 µM (inactive)	28.8 µM (inactive)	14.1 µM (inactive)	–	> 100 µM (inactive)	0.15 µM (active)	64.7 µM (inactive)	21.3 µM (inactive)	16.1 µM (inactive)
O=C1c2ccccc2C2(O)Oc3cccc(O)c3C12O (centres undefined)	> 100 µM (inactive)	> 100 µM (inactive)	> 100 µM (inactive)	> 100 µM (inactive)	> 100 µM (inactive)	> 100 µM (inactive)	> 100 µM (inactive)	> 100 µM (inactive)	> 100 µM (inactive)	> 100 µM (inactive)	> 100 µM (inactive)	> 100 µM (inactive)	> 100 µM (inactive)	–	> 100 µM (inactive)	> 100 µM (inactive)	> 100 µM (inactive)	62.5 µM (inactive)	> 100 µM (inactive)
